Laboratory results published in the SangsterLogP compilation.
Blank lines part the entries; values can stand above or below the compound they belong to.

What was measured:
[1] = method code SF-AS, from DOI: 10.1016/0006-2952(81)90362-2, PMID: 7271838; conditions: pH 7.5
[2] = method code SF-HPLC, from DOI: 10.1016/0378-5173(90)90184-6; conditions: pH 4.0
[3] = method code SF-HPLC, from Yu, G.; Xu, X. (1993). Determination of the 1-octanol/water partition coefficient of nitro-PAHs. Huanjing Huaxue, 12(4)299-303.
[4] = method code SF-HPLC, from DOI: 10.1016/0168-3659(92)90067-2
[5] = method code SF-RC, from DOI: 10.1002/syn.20147; conditions: pH 7.4
[6] = method code SF-RC, from DOI: 10.1016/s0969-8051(00)00080-9, PMID: 10832080; conditions: pH 13.0
[7] = method code SF-AS, from DOI: 10.1021/acs.inorgchem.5b01238, PMID: 26280387
[8] = method code SF-AS, from DOI: 10.1248/cpb.32.4084, PMID: 6099228; conditions: pH 7.4
[9] = not given; remark: listed apart in the source
[10] = method code SF-HPLC, from DOI: 10.1016/0006-2952(94)90540-1, PMID: 8185676
[11] = method code SF-AS, from DOI: 10.1213/00000539-199008000-00008, PMID: 2375517
[12] = method code SF-HPLC, from DOI: 10.1248/cpb.37.2861, PMID: 2611948; conditions: pH 4.0
[13] = method code SF-AS, from DOI: 10.1021/jm00051a006, PMID: 7996541
[14] = method code SF-HPLC, from DOI: 10.1016/j.ejps.2015.05.008, PMID: 25968358; conditions: pH 7.4
[15] = method code SF-AS, from DOI: 10.1016/0378-5173(86)90115-8
[16] = method code SF-AS, from DOI: 10.1007/bf02273190
[17] = not given; remark: listed apart in the source
[18] = method code SF, from DOI: 10.1038/bjc.1982.190, PMID: 7150475
[19] = not given; remark: listed apart in the source
[20] = not given; remark: listed apart in the source
[21] = method code SF-AS, from DOI: 10.1016/0223-5234(96)88239-0; conditions: pH 2.0
[22] = method code SF-AS, from DOI: 10.1016/s0003-2670(01)80868-0
[23] = method code SF-HPLC, from DOI: 10.1006/pest.1998.2384
[24] = method code SF-AS, from Lippold, B.; Lichey, J. (1984). Transport of drugs through lipophilic polymer membranes. II. Influence of the partition and diffusion coefficients. Acta pharmaceutica technologica, 30(2)140-154.
[25] = method code SF-AS, from DOI: 10.1016/0300-483x(85)90004-6, PMID: 4024126
[26] = method code SF-AS, from DOI: 10.1211/0022357011776199, PMID: 11428660; conditions: pH 7.4
[27] = method code SF, from DOI: 10.1016/j.bcp.2004.09.021, PMID: 15627482; conditions: pH 7.0
[28] = method code SF-GLC, from DOI: 10.1021/jm00366a019, PMID: 6644745
[29] = method code SF, from DOI: 10.1023/a:1012119527214, PMID: 9453056; conditions: pH 12.5
[30] = not given; remark: listed apart in the source
[31] = method code SF-RC, from DOI: 10.1016/j.apradiso.2010.08.010, PMID: 20843697; conditions: pH 7.4
[32] = method code SF-ILT, from DOI: 10.1002/ardp.19763091008, PMID: 1008678
[33] = not given; remark: listed apart in the source

SMILES: CCCCOC(=O)c1ccc(O)cc1
logD [1]: 3.32

SMILES: O=[N+]([O-])c1ccc(-c2ccc([N+](=O)[O-])cc2)cc1
logP [3]: 3.2

SMILES: N#Cc1cc(F)cc(C#Cc2ccccn2)c1
logD [5]: 2.8

SMILES: CN1C2CCC1C(c1cccnc1)C2 (configuration not stated)
logD [6]: 1.65

SMILES: CCCCOC(=O)c1ccc(N)cc1
logD [1]: 3.05

SMILES: Clc1cc(Cl)c2oc3c(Cl)c(Cl)c(Cl)c(Cl)c3c2c1Cl
logP [9]: 7.93

SMILES: Clc1cc2c(oc3c(Cl)cc(Cl)c(Cl)c32)c(Cl)c1Cl
logP [9]: 7.51

SMILES: Cc1ccc(Cn2cc(F)c(=O)[nH]c2=O)cc1
logD [12]: 1.5

SMILES: c1ccc2c(c1)Nc1ccccc1S2
logD [14]: 3.97

SMILES: CCCCCC(=O)N(C)c1ccc(S(=O)(=O)N(C)C)cc1
logP [15]: 2.16

SMILES: CN1C2CCC1C(c1ccccn1)C2 (configuration not stated)
logD [6]: 1.34

SMILES: Brc1cccc(-c2cc(Br)ccc2Br)c1
logP [19]: 6.2

SMILES: CN(C)c1nc(=O)n(C2CCCCC2)c(=O)n1C
logP [20]: 1.85

SMILES: CCCCC(=O)c1ccccc1
logD [14]: 3.03

SMILES: CCCCCC(=O)CC(=O)CCCCC
logP [22]: 4.88

SMILES: Brc1ccc(-c2ccccc2)c(Br)c1
logP [19]: 5.53

SMILES: C#CCN1CCN(Cc2ccc(Cl)nc2)C1=N[N+](=O)[O-]
logP [23]: 0.29

SMILES: O=[N+]([O-])c1ccc2c(c1)Cc1ccccc1-2
logP [3]: 3.99

SMILES: C=CCN1CCN(Cc2ccc(Cl)nc2)C1=N[N+](=O)[O-]
logP [23]: 0.51

SMILES: CC(=O)c1ccc(N2C(=O)CCC2=O)cc1
logP [25]: 1.37

SMILES: O=C(O)c1ccc2ccccc2c1
logP [17]: 3.1

SMILES: N[C@@H]1C[C@@H]2C[C@H]1c1ccc(C(F)(F)F)cc12
logD ([28]; pH 12.0): 3.21

SMILES: COP(=O)(OC)O/C(C)=C/C(=O)OC(C)c1ccccc1 (configuration not stated)
logP [30]: 3

SMILES: CC(=O)N(C)c1ccc(S(=O)(=O)N(C)C)cc1
logP [16]: 0.23

SMILES: CNC1CC2c3ccccc3C1C2O (configuration not stated)
logD ([28]; pH 13.0): 0.91

SMILES: CCN(CC)C(=O)C1C2CC3C(OC(=O)C31)C2O (configuration not stated)
logP [32]: 0.15

SMILES: CCN(CC)C(=O)[C@@H]1[C@@H](C(=O)N(CC)CC)[C@H]2C=C[C@@H]1C2
logP [32]: 1.16

SMILES: CN1C[C@@H](N)C[C@@H]2c3cccc4[nH]cc(c34)C[C@H]21
logP [33]: 0.4

SMILES: ClC1=C(Cl)C2(Cl)C3C4C=CC(C4)C3C1(Cl)C2(Cl)Cl (configuration not stated)
logP [30]: 5.67

SMILES: CN(C(=O)CCC(N)=O)c1ccc(S(=O)(=O)N(C)C)cc1
logP [15]: -0.56

SMILES: Cc1ncc([N+](=O)[O-])n1CCOC(=O)CN1CCOCC1
logD [26]: 0.27

Other lines, results leading:

logD [2]: 2.63
SMILES: CCCCCCNC(=O)n1cc(F)c(=O)[nH]c1=O

logP [4]: 1.19
SMILES: COc1ccc(C[C@H](NC(C)=O)C(=O)N[C@H](Cc2ccc(OC)cc2)C(N)=O)cc1

logP: 1.64
SMILES: CN(C)Cc1ccc(CSCCNc2[nH]ccc2[N+](=O)[O-])o1

logP [7]: 1.93
SMILES: CCSC(=S)C=C(O)c1ccccc1

logP: 1.98
SMILES: CCN/C(=N/C#N)NCCSCc1ncccc1Br

logD [8]: 3.52
SMILES: CCc1ccc(NC(=O)CN2CCCCC2)cc1

logP [10]: 0.4
SMILES: CC[C@]1(Cl)C(=O)NC(=O)N([C@H]2C[C@H](O)[C@@H](CO)O2)[C@@H]1OC

logP [11]: 2.11
SMILES: CCCNC(C)C(=O)Nc1ccccc1C (configuration not stated)

logP [13]: 0.52
SMILES: CO[C@H]1N([C@H]2C[C@H](N=[N+]=[N-])[C@@H](CO)O2)C(=O)NC(=O)[C@@]1(C)Cl

logP [16]: 0.71
SMILES: CCC(=O)N(C)c1ccc(S(=O)(=O)N(C)C)cc1

logP [17]: 3.18
SMILES: COC(C)(C(=O)O)c1ccc2ccccc2c1 (configuration not stated)

logP [18]: 0.93
SMILES: O=[N+]([O-])c1nccn1CC(O)CN1CCCCC1 (configuration not stated)

logP [7]: 1.97
SMILES: CCSC(=S)C=C(O)c1ccc(O)cc1

logD [21]: 2.01
SMILES: COc1ccc(C(=O)c2ncc(C(=O)O)n2C)cc1

logP [20]: 3.81
SMILES: CCSc1nc(NC(C)C)nc(NC(C)C)n1

logP [10]: 0.4
SMILES: CC[C@@]1(Br)C(=O)NC(=O)N([C@H]2C[C@H](O)[C@@H](CO)O2)[C@H]1OC

logP [24]: 2.7
SMILES: CC(C1=C(CCN(C)C)Cc2ccccc21)c1ccccn1 (configuration not stated)

logD [26]: 0.03
SMILES: CCN(CC)CC(=O)OCCn1c([N+](=O)[O-])cnc1C

logD [27]: 1.59
SMILES: CCCCC1(C(=O)OC(C)CC)CCC=[N+]1[O-] (configuration not stated)

logP [25]: 0.67
SMILES: CC(C)(C)c1ccc(N2C(=O)CCC2=O)cc1

logD [5]: 3.2
SMILES: Cc1nc(C#Cc2cc(F)cc(C#N)c2)cs1

logP [13]: 1.22
SMILES: CO[C@@H]1N([C@H]2C[C@H](N=[N+]=[N-])[C@@H](CO)O2)C(=O)NC(=O)[C@@]1(C)Br

logD [29]: 1.23
SMILES: Cc1cccc(C)c1NC(=O)CN(C)C

logD [31]: 0.63
SMILES: O=C(NCCN1C(=O)C=CC1=O)c1cncc(I)c1

logP [11]: 2.86
SMILES: CCN(CC)CCOC(=O)c1ccc(N)cc1Cl

logD [12]: 1.04
SMILES: COc1ccc(Cn2cc(F)c(=O)[nH]c2=O)cc1

logD [27]: 1.16
SMILES: CCCCC1(C(=O)OCCC)CCC=[N+]1[O-] (configuration not stated)

logD [8]: 3.26
SMILES: O=C(CN1CCCCC1)Nc1ccc(Cl)cc1

logP [4]: -0.7
SMILES: CC(=O)NC(Cc1ccc(O)cc1)C(N)=O (configuration not stated)

logD [31]: 1.03
SMILES: O=C(NCCN1C(=O)C=CC1=O)c1cccc(I)c1

logD [2]: 3.9
SMILES: CCCCCCCCNC(=O)n1cc(F)c(=O)[nH]c1=O

logP [24]: 1.18
SMILES: CCCCNC(=O)NS(=O)(=O)c1ccc(N)cc1

logD [21]: 2.25
SMILES: Cc1ccc(C(=O)c2ncc(C(=O)O)n2C)cc1

logP [33]: 1.81
SMILES: CN(C)CCSCc1ccccc1

logD [29]: 2.2
SMILES: CCN(CC)CC(=O)NCC(=O)Nc1c(C)cccc1C

logP [22]: 3.56
SMILES: CCCCC(=O)CC(=O)CCCC
